Laboratory results reported in US6121330A, “5-Hydroxyalkyl substituted phenyls and their use in medicaments for the treatment of arteriosclerosis and hyperlipoproteinaemia” (Bayer Aktiengesellschaft, priority 1997, dated 2000).
pIC50: −log10 of the molar value.

Assays:
[1] = target: T1, cholesterol ester transfer protein (CETP) (Homo sapiens, UniProt P11597); test: CETP inhibition testing (transfer of 3H-cholesterol ester from human HD lipoproteins to biotinylated LD lipoproteins); format: biochemical; details: CETP partially purified from human plasma; 3H-cholesterol ester transfer HDL to biotin-LDL, 37° C., 18 h
T1 construct: CETP is obtained from human plasma in partially purified form by differential centrifugation and column chromatography; from tissue; host or cells: human plasma
T1 sequence (P11597 18-493): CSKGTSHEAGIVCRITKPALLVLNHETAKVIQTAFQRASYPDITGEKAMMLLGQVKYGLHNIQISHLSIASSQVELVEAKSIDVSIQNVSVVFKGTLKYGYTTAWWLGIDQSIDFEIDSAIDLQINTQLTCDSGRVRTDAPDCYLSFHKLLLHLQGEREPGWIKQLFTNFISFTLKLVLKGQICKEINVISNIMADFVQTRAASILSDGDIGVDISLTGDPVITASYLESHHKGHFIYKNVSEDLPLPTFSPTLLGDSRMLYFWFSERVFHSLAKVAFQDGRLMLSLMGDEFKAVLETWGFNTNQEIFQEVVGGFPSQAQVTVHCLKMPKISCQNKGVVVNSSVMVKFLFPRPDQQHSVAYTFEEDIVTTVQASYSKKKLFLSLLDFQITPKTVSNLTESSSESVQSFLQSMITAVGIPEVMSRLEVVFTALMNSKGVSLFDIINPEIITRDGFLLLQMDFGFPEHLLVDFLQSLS
Protocol: CETP is obtained from human plasma in partially purified form by differential centrifugation and column chromatography and used for the test. To this end, human plasma is adjusted to a density of 1.21 g per ml using NaBr and centrifuged at 4° C. for 18 h at 50,000 rpm. The bottom fraction (d>1.21 g/ml) is applied to a Sephadex®phenyl-sepharose 4B (Pharmacia) column, washed with 0.15 M NaCl/0.001 M trisHCl pH 7.4 and then eluted with distilled water. The CETP-active fractions are pooled, dialyzed against 50 mM Na acetate pH 4.5 and applied to a CM-Sepharose® (Pharmacia) column. The column is then eluted using a linear gradient (0-1 M NaCl). The pooled CETP fractions are dialyzed against 10 mM tris HCl pH 7.4 and then further purified by chromatography on a Mono Q® column (Pharmacia).
Obtainment of Radiolabelled HDL
50 ml of fresh human EDTA plasma is adjusted to a density of 1.12 using NaBr and centrifuged at 50,000 rpm for 18 h at 4° C. in a Ty 65 rotor. The upper phase is used to obtain cold LDL. The lower phase is dialyzed against 3×4 l of PDB buffer (10 mM tris/HCl pH 7.4, […], 1 mM EDTA, 0.02% NaN3). 20 μl of 3H-cholesterol (Dupont NET-725; 1 μC/μl dissolved in ethanol!) are then added per 10 ml of retentate volume and the mixture is incubated under N2 at 37° C. for 72 h. […]
To test the CETP activity, the transfer of ^3 H-cholesterol ester from human HD lipoproteins to biotinylated LD lipoproteins is measured.
The reaction is ended by addition of streptavidin-SPA® beads (Amersham) and the transferred radioactivity is determined directly in a liquid scintillation counter.
In the test mixture, 10 μl of HDL-^3 H-cholesterol ester (~50,000 cpm) are incubated at 37° C. for 18 h with 10 μl of biotin-LDL (Amersham) in 50 mM Hepes/0.15 M NaCl/0.1% bovine serum albumin/0.05% NaN3 pH 7.4 with 10 μl of CETP (1 mg/ml) and 3 μl of solution of the substance to be tested dissolved (in 10% DMSO/1% RSA). 200 μl of the SPA-streptavidin bead solution (TRKQ 7005) are then added, the mixture is incubated further for 1 h with shaking and then measured in the scintillation counter. […]

[2] = system: HDL cholesterol; test: HDL rise in in vivo experiments (oral administration); parameters: species or system Syrian golden hamster; details: oral (stomach tube), 2 × 30 mg/kg/d
Protocol: In Vivo Activity of the Compounds According to the Invention
In experiments to determine the oral action on lipoproteins and triglycerides, test substance dissolved in DMSO and 0.5% Tylose suspended by means of a stomach tube are administered orally to Syrian golder hamsters from in-house breeding. To determine the CETP activity, blood (about 250 μl) is taken by retroorbital puncture before the start of the experiment. The test substances are then administered orally by means of a stomach tube. The control animals receive identical volumes of solvent without test substance. […]
Clotting is ended by incubation at 4° C. overnight, then centrifugation at 6000×g is carried out for 10 minutes. In the serum thus obtained, the content of cholesterol and triglycerides is determined with the aid of modified commercially available enzyme tests (cholesterol enzymatic 14366 Merck, triglycerides 14364 Merck). […]
100 μl of serum dilution are mixed with 100 μl of […] in 96-hole plates and incubated at room temperature for 10 minutes. The optical density is then determined at a wavelength of 492 nm using an automatic plate-reading apparatus. The triglyceride or cholesterol concentration contained in the samples is determined with the aid of a standard curve measured in parallel. […]

pIC50 [1] | Compound | % HDL rise [2]
7.05 | OCc1c(-c2ccc(F)cc2)cc(C2CCCC2)c(C(F)c2ccc(C(F)(F)F)cc2)c1-c1ccc(F)cc1 (stereo not shown) [Example 1] | –
7.00 | CC(C)c1cc(-c2ccc(F)cc2)c(CO)c(-c2ccc(F)cc2)c1C(F)c1ccc(C(F)(F)F)cc1 (stereo not shown) [Example 3] | 21%
5.40 | CC(C)c1cc(-c2ccc(F)cc2)c(CO)c(-c2ccc(F)cc2)c1C(=O)c1ccc(C(F)(F)F)cc1 [Example 4] | –
